Measurements from patent US8673897B2, “Benzodiazepinone compounds and methods of treatment using same” (The Regents of the University of Michigan, priority 2009, dated 2014).
Where two headings read alike, the source gives them in different places.

Tests used:
[1] = target: T1, ATPase (Bos taurus, UniProt P13621); experiment: ATPase inhibition assay; type: biochemical
T1 construct: from tissue; host or cells: bovine sub-mitochondrial particles (SMPs)
Description: (§1) Representative compounds were tested for cytotoxicity in Ramos cells and inhibitory activity against ATPase. The Ramos cell death assay and ATPase inhibition assay were conducted as described in K. M. Johnson et al. Chemistry & Biology 2005, 12, 485-496.

[2] = system: Ramos cells; experiment: Ramos cell death assay (cytotoxicity); type: cell-based; details: Homo sapiens
Description: as §1

| SMILES | IC50 [1] | EC50 [2] | IC50 ([1]; read-out: ATPase IC50) |
| --- | --- | --- | --- |
| Cc1cc(C2=NC(Cc3cc(F)ccc3Cl)C(=O)Nc3ccc(Cl)cc32)ccc1O (stereo not drawn) [III-2, 7-Chloro-3-(2-chloro-5-fluorobenzyl)-5-(4-hydroxy-3-methylphenyl)-1H-benzo[e][1,4]diazepin-2(3H)-one] | < 7 µM | < 7 µM | – |
| Cc1cc(C2=N[C@@H](Cc3ccccc3Cl)C(=O)Nc3ccc(Cl)cc32)ccc1O [IV-5, (S)-7-Chloro-3-(2-chlorobenzyl)-5-(4-hydroxy-3-methylphenyl)-1H-benzo[e][1,4]diazepin-2(3H)-one] | < 7 µM | < 7 µM | – |
| CNC(=O)Cn1c(=O)[nH]c2ccc(C3=NC(Cc4ccccc4Cl)C(=O)Nc4ccc(Cl)cc43)cc21 (stereo not drawn) [Compound I-4, 2-(6-(7-Chloro-3-(2-chlorobenzyl)-2-oxo-2,3-dihydro-1H-benzo[e][1,4]diazepin-5-yl)-2-oxo-2,3-dihydro-1H-benzo[d]imidazol-1-yl)-N-methylacetamide] | – | > 7 µM | > 7 µM |
| O=C1Nc2ccc(Cl)cc2C(c2ccc3[nH]c(=O)n(CCCO)c3c2)=N[C@H]1Cc1ccccc1Cl [IV-4, (S)-7-Chloro-3-(2-chlorobenzyl)-5-(3-(3-hydroxypropyl)-2-oxo-2,3-dihydro-1H-benzo[d]imidazol-5-yl)-1H-benzo[e][1,4]diazepin-2(3H)-one] | – | < 7 µM | < 7 µM |
| COc1cc(Cl)cc2c1NC(=O)C(Cc1ccccc1Cl)N=C2c1ccc2[nH]c(=O)n(C)c2c1 (stereo not drawn) [Compound I-9, 7-Chloro-3-(2-chlorobenzyl)-9-methoxy-5-(3-methyl-2-oxo-2,3-dihydro-1H-benzo[d]imidazol-5-yl)-1H-benzo[e][1,4]diazepin-2(3H)-one] | – | < 7 µM | < 7 µM |
| Cn1c(=O)[nH]c2ccc(C3=NC(Cc4ccccc4Cl)C(=O)Nc4c(O)cc(Cl)cc43)cc21 (stereo not drawn) [Compound I-10, 7-Chloro-3-(2-chlorobenzyl)-9-hydroxy-5-(3-methyl-2-oxo-2,3-dihydro-1H-benzo[d]imidazol-5-yl)-1H-benzo[e][1,4]diazepin-2(3H)-one] | – | > 7 µM | < 7 µM |
| CCn1c(=O)[nH]c2ccc(C3=NC(Cc4ccc5ccccc5c4)C(=O)N(C)c4ccc(Cl)cc43)cc21 (stereo not drawn) [Compound I-1, 7-Chloro-5-(3-ethyl-2-oxo-2,3-dihydro-1H-benzo[d]imidazol-5-yl)-1-methyl-3-(naphthalen-2-ylmethyl)-1H-benzo[e][1,4]diazepin-2(3H)-one] | – | > 7 µM | < 7 µM |
| O=C1Nc2ccc(Cl)cc2C(c2ccc3[nH]c(=O)n(CCCO)c3c2)=N[C@@H]1Cc1ccccc1Cl [IV-3, (R)-7-chloro-3-(2-chlorobenzyl)-5-(3-(3-hydroxypropyl)-2-oxo-2,3-dihydro-1H-benzo[d]imidazol-5-yl)-1H-benzo[e][1,4]diazepin-2(3H)-one] | – | < 7 µM | < 7 µM |
| CCn1c(=O)[nH]c2cc(C3=NC(Cc4ccc5ccccc5c4)C(=O)Nc4ccc(Cl)cc43)ccc21 (stereo not drawn) [Compound I-14] | – | < 7 µM | < 7 µM |
| O=C1Nc2ccc(Cl)cc2C(c2ccc3[nH]c(=O)n(CCO)c3c2)=NC1Cc1ccccc1Cl (stereo not drawn) [Compound I-6, 7-Chloro-3-(2-chlorobenzyl)-5-(3-(2-hydroxyethyl)-2-oxo-2,3-dihydro-1H-benzo[d]imidazol-5-yl)-1H-benzo[e][1,4]diazepin-2(3H)-one] | – | < 7 µM | > 7 µM |
| CN1C(=O)C(Cc2ccccc2Cl)N=C(c2ccc3[nH]c(=O)n(CCCO)c3c2)c2cc(Cl)ccc21 (stereo not drawn) [Compound I-7, 7-Chloro-3-(2-chlorobenzyl)-5-(3-(3-hydroxypropyl)-2-oxo-2,3-dihydro-1H-benzo[d]imidazol-5-yl)-1-methyl-1H-benzo[e][1,4]diazepin-2(3H)-one] | – | > 7 µM | < 7 µM |
| Cn1c(=O)[nH]c2ccc(C3=NC(Cc4ccccc4Cl)C(=O)Nc4c(F)cc(Cl)cc43)cc21 (stereo not drawn) [Compound I-12, 7-Chloro-3-(2-chlorobenzyl)-9-fluoro-5-(3-methyl-2-oxo-2,3-dihydro-1H-benzo[d]imidazol-5-yl)-1H-benzo[e][1,4]diazepin-2(3H)-one] | – | > 7 µM | < 7 µM |
| Cn1c(=O)[nH]c2ccc(C3=NC(Cc4ccc(Cl)cc4)C(=O)Nc4ccc(Cl)cc43)cc21 (stereo not drawn) [Compound I-13, 7-Chloro-3-(4-chlorobenzyl)-5-(3-methyl-2-oxo-2,3-dihydro-1H-benzo[d]imidazol-5-yl)-1H-benzo[e][1,4]diazepin-2(3H)-one] | < 7 µM | < 7 µM | – |
| Cc1cc(C2=N[C@H](Cc3ccccc3Cl)C(=O)Nc3ccc(Cl)cc32)ccc1O [IV-6, (R)-7-Chloro-3-(2-chlorobenzyl)-5-(4-hydroxy-3-methylphenyl)-1H-benzo[e][1,4]diazepin-2(3H)-one] | < 7 µM | < 7 µM | – |
| Cc1cc(C2=NC(Cc3ccccc3C(F)(F)F)C(=O)Nc3ccc(Cl)cc32)ccc1O (stereo not drawn) [III-5, 7-Chloro-5-(4-hydroxy-3-methylphenyl)-3-(2-(trifluoromethyl)benzyl)-1H-benzo[e][1,4]diazepin-2(3H)-one] | < 7 µM | < 7 µM | – |
| Cc1cc(C2=NC(Cc3ccc(C(F)(F)F)cc3)C(=O)Nc3ccc(Cl)cc32)ccc1O (stereo not drawn) [III-6, 7-Chloro-5-(4-hydroxy-3-methylphenyl)-3-(4-(trifluoromethyl)benzyl)-1H-benzo[e][1,4]diazepin-2(3H)-one] | > 7 µM | > 7 µM | – |
| O=C1Nc2ccc(F)cc2C(c2ccc3[nH]c(=O)[nH]c3c2)=NC1Cc1ccccc1Cl (stereo not drawn) [II-1, 3-(2-Chlorobenzyl)-7-fluoro-5-(2-oxo-2,3-dihydro-1H-benzo[d]imidazol-5-yl)-1H-benzo[e][1,4]diazepin-2(3H)-one] | > 7 µM | < 7 µM | – |
| CN1C(=O)C(Cc2ccccc2Cl)N=C(c2ccc3[nH]c(=O)n(C)c3c2)c2cc(Cl)ccc21 (stereo not drawn) [Compound I-11, 7-Chloro-3-(2-chlorobenzyl)-1-methyl-5-(3-methyl-2-oxo-2,3-dihydro-1H-benzo[d]imidazol-5-yl)-1H-benzo[e][1,4]diazepin-2(3H)-one] | – | > 7 µM | < 7 µM |
| Cc1cc(C2=NC(Cc3ccc(F)cc3Cl)C(=O)Nc3ccc(Cl)cc32)ccc1O (stereo not drawn) [III-4, 7-Chloro-3-(2-chloro-4-fluorobenzyl)-5-(4-hydroxy-3-methylphenyl)-1H-benzo[e][1,4]diazepin-2(3H)-one] | < 7 µM | < 7 µM | – |
| Cn1c(=O)[nH]c2ccc(C3=N[C@H](Cc4ccccc4Cl)C(=O)Nc4ccc(Cl)cc43)cc21 [IV-1, (R)-7-Chloro-3-(2-chlorobenzyl)-5-(3-methyl-2-oxo-2,3-dihydro-1H-benzo[d]imidazol-5-yl)-1H-benzo[e][1,4]diazepin-2(3H)-one] | < 7 µM | < 7 µM | – |
| Cn1c(=O)[nH]c2ccc(C3=N[C@@H](Cc4ccccc4Cl)C(=O)Nc4ccc(Cl)cc43)cc21 [IV-2, (S)-7-chloro-3-(2-chlorobenzyl)-5-(3-methyl-2-oxo-2,3-dihydro-1H-benzo[d]imidazol-5-yl)-1H-benzo[e][1,4]diazepin-2(3H)-one] | < 7 µM | < 7 µM | – |
| Cc1cc(C2=NC(Cc3ccc(Cl)cc3)C(=O)Nc3ccc(Cl)cc32)ccc1O (stereo not drawn) [III-3, 7-Chloro-3-(4-chlorobenzyl)-5-(4-hydroxy-3-methylphenyl)-1H-benzo[e][1,4]diazepin-2(3H)-one] | < 7 µM | < 7 µM | – |
| O=C(O)Cn1c(=O)[nH]c2ccc(C3=NC(Cc4ccccc4Cl)C(=O)Nc4ccc(Cl)cc43)cc21 (stereo not drawn) [Compound I-3, 2-(6-(7-Chloro-3-(2-chlorobenzyl)-2-oxo-2,3-dihydro-1H-benzo[e][1,4]diazepin-5-yl)-2-oxo-2,3-dihydro-1H-benzo[d]imidazol-1-yl)acetic acid] | – | > 7 µM | > 7 µM |
| CCc1ccc(CC2N=C(c3ccc(O)c(CC(N)=O)c3)c3cc(Cl)ccc3NC2=O)cc1CC (stereo not drawn) [III-1, 2-(5-(7-Chloro-3-(3,4-diethylbenzyl)-2-oxo-2,3-dihydro-1H-benzo[e][1,4]diazepin-5-yl)-2-hydroxyphenyl)acetamide] | – | < 7 µM | > 7 µM |
| Cn1c(=O)[nH]c2ccc(C3=NC(Cc4ccccc4Cl)C(=O)Nc4ccc(Cl)cc43)cc21 (stereo not drawn) [Compound I-2, 7-Chloro-3-(2-chlorobenzyl)-5-(3-methyl-2-oxo-2,3-dihydro-1H-benzo[d]imidazol-5-yl)-1H-benzo[e][1,4]diazepin-2(3H)-one] | < 7 µM | < 7 µM | – |
| Cn1c(=O)[nH]c2ccc(C3=NC(Cc4ccccc4Cl)C(=O)N(CCO)c4ccc(Cl)cc43)cc21 (stereo not drawn) [Compound I-8, 7-Chloro-3-(2-chlorobenzyl)-1-(2-hydroxyethyl)-5-(3-methyl-2-oxo-2,3-dihydro-1H-benzo[d]imidazol-5-yl)-1H-benzo[e][1,4]diazepin-2(3H)-one] | – | > 7 µM | < 7 µM |
| O=C1Nc2ccc(Cl)cc2C(c2ccc3[nH]c(=O)n(CCCO)c3c2)=NC1Cc1ccccc1Cl (stereo not drawn) [Compound I-5, 7-Chloro-3-(2-chlorobenzyl)-5-(3-(3-hydroxypropyl)-2-oxo-2,3-dihydro-1H-benzo[d]imidazol-5-yl)-1H-benzo[e][1,4]diazepin-2(3H)-one] | – | < 7 µM | < 7 µM |
